Values after ≈ are worked out from the molar mass of the structure shown.
Key:
Format in all cases: functional
HepG2 = assay: Growth inhibition of human HepG2 cells
[1] = Growth inhibition of human HM02 cells
Microbotryum violaceum = assay: Antifungal activity against Microbotryum violaceum at 50 ug/disk by agar diffusion test; details: read-out: IZ
[Chlorella] fusca = Antialgal activity against Chlorella fusca at 50 ug/disk by agar diffusion test; details: Scenedesmus fuscus; read-out: IZ

In the case of `COC(CC(O)C(C)C(O)C(C)/C=C(C)/C(C)=C/CC/C(C)=C\C(N)=O)[C@H]1O[C@]2(C[C@H](O)[C@H](C)[C@H](C/C=C/c3coc(C)n3)O2)C(C)(C)[C@H]1OP(=O)(O)O` (stereo partly specified) [GEOMETRICIN A], the GI50 (HepG2) is reported as 2.8 µg/mL (≈ 3.58 µM), the TGI (HepG2) is reported as 8.8 µg/mL (≈ 11.2 µM) and the GI50 [1] is reported as 1.7 µg/mL (≈ 2.17 µM). The TGI [1] was 3.2 µg/mL (≈ 4.09 µM), the zone of inhibition at 50 µg/disc (Microbotryum violaceum) was 5 mm and the zone of inhibition at 50 µg/disc ([Chlorella] fusca) was 5 mm.
